Source: PMC7018746, “An efficient and targeted synthetic approach towards new highly substituted 6-amino-pyrazolo[1,5-a]pyrimidines with α-glucosidase inhibitory activity” (Scientific Reports, 2020)
Read-outs that look alike come from different tables or passages of the source.

Columns and labels:
[1] = test system: breast cancer cell line MDA-MB-231; assay: Cytotoxicity studies, MDA-MB-231; format: cell-based; conditions: MDA-MB-231, at concentration of 100 µM
Protocol: (§1) The cytotoxicity of some of potent compounds including 3d, 3m, 3v, and 3af was evaluated through use of the breast cancer cell line MDA-MB-231 and human pancreatic cancer cell line PANC-1.

[2] = Cytotoxicity studies, MDA-MB-231; format: cell-based; conditions: human, MDA-MB-231 breast cancer cells
Protocol: as §1

[3] = target: T1, α-glucosidase (Saccharomyces cerevisiae, UniProt P53341); assay: Enzyme kinetic studies (Lineweaver-Burk and secondary plots); format: biochemical; conditions: for inhibition type: Lineweaver-Burk plot: Km increased, Vmax unchanged; for Ki: estimated from plot of Km versus inhibitor concentration, read-out: inhibition constant, Ki
T1 construct: purchased Sigma-Aldrich
T1 sequence (P53341 whole entry): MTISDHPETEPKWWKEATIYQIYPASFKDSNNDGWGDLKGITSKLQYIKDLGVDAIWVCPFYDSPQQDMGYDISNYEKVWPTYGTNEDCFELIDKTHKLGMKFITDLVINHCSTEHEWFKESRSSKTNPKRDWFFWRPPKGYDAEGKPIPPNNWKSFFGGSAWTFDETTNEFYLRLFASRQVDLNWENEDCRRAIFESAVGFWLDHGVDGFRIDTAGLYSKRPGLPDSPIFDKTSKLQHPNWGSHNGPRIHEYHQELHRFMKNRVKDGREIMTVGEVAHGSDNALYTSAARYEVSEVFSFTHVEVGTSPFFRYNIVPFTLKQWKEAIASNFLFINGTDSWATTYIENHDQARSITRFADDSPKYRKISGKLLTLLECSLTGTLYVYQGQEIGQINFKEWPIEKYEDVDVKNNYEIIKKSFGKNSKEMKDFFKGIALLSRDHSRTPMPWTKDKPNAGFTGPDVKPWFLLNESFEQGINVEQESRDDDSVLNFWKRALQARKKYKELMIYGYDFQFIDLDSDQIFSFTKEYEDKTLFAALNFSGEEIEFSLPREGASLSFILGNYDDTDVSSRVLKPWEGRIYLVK
Protocol: The inhibition mode of the synthesized compounds 3 against α-glucosidase was investigated. […]. The inhibition type was indicated on the basis of Michaelis-Menten and Lineweaver-Burk plots. […] […]. The […] of enzyme solution (1 U/mL) was incubated with different concentrations (0, 5, 10, and 15 µM) of selected compounds for 15 min at 30 °C. The reaction was then started by adding different concentrations of substrate (p-nitrophenyl glucopyranoside, 1-10 mM), and change in absorbance was measured for 20 min at 405 nm by using spectrophotometer (Gen5, Power wave xs2, BioTek, America).

[4] = Cytotoxicity studies, PANC-1; format: cell-based, human; conditions: human, PANC-1 pancreatic cancer cells
Protocol: as §1

[5] = test system: human pancreatic cancer cell line PANC-1; assay: Cytotoxicity studies, PANC-1; format: cell-based; conditions: PANC-1, at concentration of 100 µM
Protocol: as §1

[6] = target: T2, α-glucosidase (Saccharomyces cerevisiae, EC.3.2.1.20) (Saccharomyces cerevisiae, UniProt P53341); assay: biochemical; format: biochemical; conditions: for IC50: mean ± SD, at least three experiments, read-out: IC50 (µM), in vitro α-glucosidase inhibitory activity
T2 construct: purchased Sigma-Aldrich
T2 sequence (P53341 whole entry): as above
Protocol: α-Glucosidase enzyme (EC3.2.1.20, Saccharomyces cerevisiae, 20 U/mg) and substrate (p-nitrophenyl glucopyranoside) were purchased from Sigma-Aldrich. […] Finally, the change in absorbance was measured at 405 nm by using spectrophotometer (Gen5, Power wave xs2, BioTek, America). DMSO (10% final concentration) and acarbose were used respectively as control and standard drug. The percentage of enzyme inhibitionwas calculated and IC50 values were obtained from non-linear regression curve using the Logit method.

Compound: CCOC(=O)c1c(-c2ccccc2)nn2c(-c3ccc(Cl)cc3)c(N)c(-c3ccc(OC)cc3)nc12 [3af, Ethyl 6-amino-7-(4-chlorophenyl)-5-(4-methoxyphenyl)-2-phenylpyrazolo[1,5-a]pyrimidine-3-carboxylate]
- cytotoxic activity [1]: did not possess any cytotoxic activity
- IC50 [2]: > 200 µM
- inhibition type [3]: competitive inhibition
- Ki [3]: 65 µM
- IC50 [4]: > 200 µM
- cytotoxic activity [5]: did not possess any cytotoxic activity
- IC50 ([6]; Table 2, compounds 3aa-ai): 65.5 ± 3 µM
- melting point: 226 to 228 °C

Compound: COc1ccc(NC(=O)c2c(Nc3ccccc3)nn3c(-c4ccc(Br)cc4)c(N)c(-c4ccc(C)cc4)nc23)cc1 [3m, 6-Amino-7-(4-bromophenyl)-N-(4-methoxyphenyl)-2-(phenylamino)-5-p-tolylpyrazolo[1,5-a]pyrimidine-3-carboxamide]
- cytotoxic activity [1]: did not possess any cytotoxic activity
- IC50 [2]: > 200 µM
- IC50 [4]: > 200 µM
- cytotoxic activity [5]: did not possess any cytotoxic activity
- IC50 ([6]; Table 1, compounds 3a-z): 24.7 ± 1.1 µM
- melting point: 282 to 283 °C

Compound: Cc1ccc(-c2nc3c(C(=O)Nc4ccc(Cl)cc4)c(Nc4ccccc4)nn3c(-c3ccc(Br)cc3)c2N)cc1 [3v, 6-Amino-7-(4-bromophenyl)-N-(4-chlorophenyl)-2-(phenylamino)-5-p-tolylpyrazolo[1,5-a]pyrimidine-3-carboxamide]
- cytotoxic activity [1]: did not possess any cytotoxic activity
- IC50 [2]: > 200 µM
- IC50 [4]: > 200 µM
- cytotoxic activity [5]: did not possess any cytotoxic activity
- IC50 ([6]; Table 1, compounds 3a-z): 17.6 ± 0.6 µM
- melting point: 271 to 273 °C

Compound: Cc1ccc(-c2nc3c(C(=O)Nc4ccccc4)c(Nc4ccccc4)nn3c(-c3ccc(Br)cc3)c2N)cc1 [3d, 6-Amino-7-(4-bromophenyl)-N-phenyl-2-(phenylamino)-5-p-tolylpyrazolo[1,5-a]pyrimidine-3-carboxamide]
- cytotoxic activity [1]: did not possess any cytotoxic activity
- IC50 [2]: > 200 µM
- inhibition type [3]: competitive inhibition
- Ki [3]: 12 µM
- IC50 [4]: > 200 µM
- cytotoxic activity [5]: did not possess any cytotoxic activity
- IC50 ([6]; Table 1, compounds 3a-z): 15.2 ± 0.4 µM
- fold more potent than acarbose ([6]; ratio of α-glucosidase IC50 values vs acarbose): around 50 fold

Compound: Nc1c(-c2ccc(Cl)cc2)nc2c(C(=O)Nc3ccccc3)c(Nc3ccccc3)nn2c1-c1cccs1 [3i, 6-Amino-5-(4-chlorophenyl)-N-phenyl-2-(phenylamino)-7-(thiophen-2-yl)pyrazolo[1,5-a]pyrimidine-3-carboxamide]
- IC50 ([6]; Table 1, compounds 3a-z): 28.1 ± 1.2 µM
- melting point: 270 to 271 °C
